Like-named read-outs stand apart in the source and are kept apart here.
What was measured:
rat α4β2 nAChR subtype = biological target: T1, rat α4β2 nAChR subtype (Rattus norvegicus, UniProt P09483+P12390); assay: Radioligand binding ([3H]nicotine) at rat α4β2 nAChR, rat cortex membranes; conditions: read-out: Rat α4β2 Ki
T1 construct: Preparation of membranes from rat cortex; from tissue; host or cells: rat cerebral cortex membranes
Method: (§1) Preparation of membranes from rat cortex: Rats (female, Sprague-Dawley), weighing 150-250 g, were maintained on a 12 h light/dark cycle and were allowed free access to water and food supplied by PMI Nutrition International, Inc. Animals were anesthetized with 70% CO2, and then decapitated. Brains were removed and placed on an ice-cold platform. The cerebral cortex was removed and placed in 20 volumes (weight:volume) of ice-cold preparative buffer (137 mM NaCl, 10.7 mM KCl, 5.8 mM KH2PO4, 8 mM Na2HPO4, 20 mM HEPES (free acid), 5 mM iodoacetamide, 1.6 mM EDTA, pH 7.4); PMSF, dissolved in methanol to a final concentration of 100 μM, was added and the suspension was homogenized by Polytron. The homogenate was centrifuged at 18,000×g for 20 min at 4° C. and the resulting pellet was re-suspended in 20 volumes of ice-cold water. After 60 min incubation on ice, a new pellet was collected by centrifugation at 18,000×g for 20 min at 4° C. The final pellet was re-suspended in 10 volumes of buffer and stored at −20° C.
(§2) On the day of the assay, the frozen membranes were thawed and spun at 48,000×g for 20 min. The supernatant was decanted and discarded. The pellet was resuspended in Dulbecco's phosphate buffered saline (PBS, Life Technologies) pH 7.4 and homogenized with the Polytron for 6 seconds. Protein concentrations were determined using a Pierce BCA Protein Assay Kit, with bovine serum albumin as the standard (Pierce Chemical Company, Rockford, Ill.).
(§3) Incubation was terminated by rapid filtration on a multi-manifold tissue harvester (Brandel, Gaithersburg, Md.) using GF/B filters presoaked in 0.33% polyethyleneimine (w/v) to reduce non-specific binding. Tissue was rinsed 3 times in PBS, pH 7.4. Scintillation fluid was added to filters containing the washed tissue and allowed to equilibrate. Filters were then counted to determine radioactivity bound to the membranes by liquid scintillation counting (2200CA Tri-Carb LSC, Packard Instruments, 50% efficiency or Wallac Trilux 1450 MicroBeta, 40% efficiency, Perkin Elmer).
(§4) Data were expressed as disintegrations per minute (DPMs). Within each assay, each point had 2-3 replicates. The replicates for each point were averaged and plotted against the log of the drug concentration. IC50, which is the concentration of the compound that produces 50% inhibition of binding, was determined by least squares non-linear regression. Ki values were calculated using the Cheng-Prussof equation (1973): […]

human α4β2 nAChR subtype = biological target: T2, human α4β2 nAChR subtype (Homo sapiens, UniProt P17787+P43681); assay: Radioligand binding ([3H]nicotine) at human α4β2 nAChR, SH-EP1/human α4β2 clonal cell membranes; conditions: read-out: Human α4β2 Ki
T2 construct: expressed in transfected cells; host or cells: SH-EP1 clonal cells expressing human α4β2
T2 sequence (P43681 29-627 limits assumed): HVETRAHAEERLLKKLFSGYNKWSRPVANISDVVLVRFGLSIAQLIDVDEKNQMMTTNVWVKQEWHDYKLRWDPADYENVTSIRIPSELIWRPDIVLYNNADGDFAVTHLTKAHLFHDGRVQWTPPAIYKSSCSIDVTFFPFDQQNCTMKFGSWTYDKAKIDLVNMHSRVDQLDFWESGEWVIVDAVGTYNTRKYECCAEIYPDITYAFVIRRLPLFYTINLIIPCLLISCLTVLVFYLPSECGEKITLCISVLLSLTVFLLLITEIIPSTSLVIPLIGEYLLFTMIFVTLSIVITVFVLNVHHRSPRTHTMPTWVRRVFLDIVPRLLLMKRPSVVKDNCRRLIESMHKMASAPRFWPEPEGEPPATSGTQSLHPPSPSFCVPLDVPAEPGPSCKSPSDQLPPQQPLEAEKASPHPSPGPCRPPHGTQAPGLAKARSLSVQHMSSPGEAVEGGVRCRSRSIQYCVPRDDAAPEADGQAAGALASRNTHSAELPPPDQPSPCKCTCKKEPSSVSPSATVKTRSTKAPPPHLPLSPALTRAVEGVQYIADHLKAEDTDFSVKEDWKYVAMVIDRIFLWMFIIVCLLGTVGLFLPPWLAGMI
T2 sequence (P17787 26-502): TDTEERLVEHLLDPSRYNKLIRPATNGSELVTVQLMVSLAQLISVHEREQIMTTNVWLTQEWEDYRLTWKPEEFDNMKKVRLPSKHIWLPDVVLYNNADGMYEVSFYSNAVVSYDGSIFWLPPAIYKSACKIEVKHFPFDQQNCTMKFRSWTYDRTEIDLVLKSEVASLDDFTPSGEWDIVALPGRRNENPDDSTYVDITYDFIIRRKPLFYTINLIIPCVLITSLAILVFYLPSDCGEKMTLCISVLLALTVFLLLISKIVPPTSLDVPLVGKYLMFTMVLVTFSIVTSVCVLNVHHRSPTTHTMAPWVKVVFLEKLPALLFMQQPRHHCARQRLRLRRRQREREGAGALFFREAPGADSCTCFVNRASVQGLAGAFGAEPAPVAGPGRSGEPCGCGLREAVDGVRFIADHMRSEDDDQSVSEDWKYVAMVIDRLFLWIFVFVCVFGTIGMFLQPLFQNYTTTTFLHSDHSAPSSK
Method: Preparation of membranes from SH-EP1/human α4β2 clonal cells: Cell pellets from 40 150 mm culture dishes were pooled, and homogenized by Polytron (Kinematica GmbH, Switzerland) in 20 milliliters of ice-cold preparative buffer. The homogenate was centrifuged at 48,000 g for 20 minutes at 4° C. The resulting pellet was re-suspended in 20 mL of ice-cold preparative buffer and stored at −20° C.
as §2, §3, §4

rat α7 nAChR subtype = biological target: T3, rat α7 nAChR subtype (Rattus norvegicus, UniProt Q05941); assay: Radioligand binding ([3H]MLA) at α7 nAChR, rat hippocampus membranes
T3 construct: Preparation of membranes from rat hippocampus; from tissue; host or cells: rat hippocampus membranes
T3 sequence (Q05941 23-502): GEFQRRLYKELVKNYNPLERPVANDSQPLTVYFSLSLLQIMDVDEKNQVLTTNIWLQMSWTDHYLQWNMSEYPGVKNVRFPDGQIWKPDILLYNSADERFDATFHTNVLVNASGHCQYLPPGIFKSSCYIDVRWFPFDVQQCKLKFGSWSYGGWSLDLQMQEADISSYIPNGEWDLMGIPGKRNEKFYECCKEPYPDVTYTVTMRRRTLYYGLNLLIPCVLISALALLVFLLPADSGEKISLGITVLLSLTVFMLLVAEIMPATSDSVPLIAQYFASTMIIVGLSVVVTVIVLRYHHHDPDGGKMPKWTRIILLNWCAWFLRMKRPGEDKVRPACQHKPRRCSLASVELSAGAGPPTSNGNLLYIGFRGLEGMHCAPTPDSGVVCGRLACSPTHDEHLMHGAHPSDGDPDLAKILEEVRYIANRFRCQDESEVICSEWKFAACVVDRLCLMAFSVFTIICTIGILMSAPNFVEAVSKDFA
Method: as §1, with “from rat hippocampus: Rats (female,” for “from rat cortex: Rats (female,”, “70% CO2, then decapitated.” for “70% CO2, and then decapitated.”, “platform. The hippocampus was removed” for “platform. The cerebral cortex was removed”, “placed in 10 volumes (weight:volume)” for “placed in 20 volumes (weight:volume)”, “and the tissue suspension was” for “and the suspension was”, “re-suspended in 10 volumes of” for “re-suspended in 20 volumes of”
On the day of the assay, tissue was thawed, centrifuged at 18,000×g for 20 min, and then re-suspended in ice-cold PBS (Dulbecco's Phosphate Buffered Saline, 138 mM NaCl, 2.67 mM KCl, 1.47 mM KH2PO4, 8.1 mM Na2HPO4, 0.9 mM CaCl2, 0.5 mM MgCl2, Invitrogen/Gibco, pH 7.4) to a final concentration of approximately 2 mg protein/mL. Protein was determined by the method of Lowry et al., J. Biol. Chem. 193: 265 (1951), herein incorporated by reference, using bovine serum albumin as the standard.
Assay: The binding of [^3H]MLA was measured using a modification of the methods of Davies et al., Neuropharmacol. 38: 679 (1999), herein incorporated by reference. [^3H]MLA (Specific Activity=25-35 Ci/mmol) was obtained from Tocris. The binding of [^3H]MLA was determined using a 2 h incubation at 21° C. Incubations were conducted in 48-well micro-titre plates and contained about 200 μg of protein per well in a final incubation volume of 300 μL. The incubation buffer was PBS and the final concentration of [^3H]MLA was 5 nM. The binding reaction was terminated by filtration of the protein containing bound ligand onto glass fiber filters (GF/B, Brandel) using a Brandel Tissue Harvester at room temperature. Filters were soaked in de-ionized water containing 0.33% polyethyleneimine to reduce non-specific binding. Each filter was washed with PBS (3×1 mL) at room temperature. Non-specific binding was determined by inclusion of 50 μM non-radioactive MLA in selected wells.
The inhibition of [^3H]MLA binding by test compounds was determined by including seven different concentrations of the test compound in selected wells. Each concentration was replicated in triplicate. IC50 values were estimated as the concentration of compound that inhibited 50 percent of specific [^3H]MLA binding. Inhibition constants (Ki values), reported in nM, were calculated from the IC50 values using the method of Cheng et al., Biochem. Pharmacol. 22: 3099-3108 (1973), herein incorporated by reference.

[1] = rat hippocampus membranes, 5 nM [3H]MLA, read-out: Rat α7 Ki
[2] = rat cortex membranes, 5 nM [3H]nicotine

T1 sequence (P09483 31-630): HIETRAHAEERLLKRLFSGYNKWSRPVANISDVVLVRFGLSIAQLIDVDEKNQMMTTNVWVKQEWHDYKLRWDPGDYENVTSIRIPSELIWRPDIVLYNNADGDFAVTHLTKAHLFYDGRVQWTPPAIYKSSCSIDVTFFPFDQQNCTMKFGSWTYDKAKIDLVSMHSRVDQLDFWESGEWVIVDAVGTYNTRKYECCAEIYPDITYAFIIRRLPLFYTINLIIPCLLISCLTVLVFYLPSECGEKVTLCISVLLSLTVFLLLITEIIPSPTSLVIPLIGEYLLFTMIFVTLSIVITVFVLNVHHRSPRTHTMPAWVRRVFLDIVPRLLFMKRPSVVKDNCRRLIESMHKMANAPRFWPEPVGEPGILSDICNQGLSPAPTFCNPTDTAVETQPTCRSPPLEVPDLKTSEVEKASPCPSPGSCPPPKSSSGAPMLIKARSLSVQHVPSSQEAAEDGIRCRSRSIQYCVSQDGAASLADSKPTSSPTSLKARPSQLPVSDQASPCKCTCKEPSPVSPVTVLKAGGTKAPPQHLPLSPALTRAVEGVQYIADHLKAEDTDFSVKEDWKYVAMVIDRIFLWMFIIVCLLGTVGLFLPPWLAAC
T1 sequence (P12390 25-500): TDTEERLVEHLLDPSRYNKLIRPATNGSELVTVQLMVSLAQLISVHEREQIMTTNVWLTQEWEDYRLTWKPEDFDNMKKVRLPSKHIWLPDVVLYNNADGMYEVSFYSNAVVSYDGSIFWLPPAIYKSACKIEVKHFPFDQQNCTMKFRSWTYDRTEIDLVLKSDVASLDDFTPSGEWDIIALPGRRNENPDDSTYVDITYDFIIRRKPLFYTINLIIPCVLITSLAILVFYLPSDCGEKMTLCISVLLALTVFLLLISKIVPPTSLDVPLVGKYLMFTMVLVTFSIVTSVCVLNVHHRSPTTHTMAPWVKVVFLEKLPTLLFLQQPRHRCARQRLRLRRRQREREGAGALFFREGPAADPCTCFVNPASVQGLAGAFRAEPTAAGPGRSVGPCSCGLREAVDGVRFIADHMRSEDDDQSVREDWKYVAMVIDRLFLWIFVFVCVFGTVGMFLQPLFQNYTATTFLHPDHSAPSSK

O=C(N1CC2CNC(C2)C1)C(F)(F)F (stereo not drawn)
Ki (rat α4β2 nAChR subtype): 2400 nM
Ki (human α4β2 nAChR subtype): 2100 nM
Ki (rat α7 nAChR subtype): > 10000 nM

O=C(CCF)N1C[C@@H]2CN[C@@H](C2)C1
Ki (rat α4β2 nAChR subtype): 31 nM
Ki (human α4β2 nAChR subtype): 27 nM
Ki (rat α7 nAChR subtype; [1]): 950 nM

O=C([C@H]1C[C@H]1F)N1C[C@H]2CNC[C@@H]1C2
Ki (rat α4β2 nAChR subtype): 170 nM
Ki (human α4β2 nAChR subtype): 68 nM
Ki (rat α7 nAChR subtype): 1300 nM

O=C(C1CC=CC1)N1CC2CNCC1C2 (stereo not drawn)
Ki (rat α4β2 nAChR subtype; [2]): 120 nM
Ki (human α4β2 nAChR subtype): 21 nM
Ki (rat α7 nAChR subtype; [1]): 160 nM

O=C(C1C[C@@H]1F)N1CC2CNC(C2)C1 (stereo partly drawn)
Ki (rat α4β2 nAChR subtype): 22 nM
Ki (human α4β2 nAChR subtype): 14 nM
Ki (rat α7 nAChR subtype): 260 nM

CC(C)C(=O)N1C[C@@H]2CN[C@@H](C2)C1
Ki (rat α4β2 nAChR subtype): 380 nM
Ki (human α4β2 nAChR subtype): 380 nM
Ki (rat α7 nAChR subtype): 220 nM

O=C(C1C[C@H]1F)N1CC2CNC(C2)C1 (stereo partly drawn)
Ki (rat α4β2 nAChR subtype): 21 nM
Ki (human α4β2 nAChR subtype): 11 nM
Ki (rat α7 nAChR subtype): 630 nM

O=C(C1CC=CC1)N1C[C@H]2CN[C@H](C2)C1
Ki (rat α4β2 nAChR subtype): 5.5 nM
Ki (human α4β2 nAChR subtype): 4.4 nM
Ki (rat α7 nAChR subtype): 65 nM

O=C(C1CC1(F)F)N1C[C@@H]2CN[C@@H](C2)C1 (stereo partly drawn)
Ki (rat α4β2 nAChR subtype): 11 nM
Ki (human α4β2 nAChR subtype): 11 nM
Ki (rat α7 nAChR subtype; [1]): 670 nM

O=C(C1CCC1)N1C[C@H]2CN[C@H](C2)C1
Ki (rat α4β2 nAChR subtype): 2.2 nM
Ki (human α4β2 nAChR subtype): 1.6 nM
Ki (rat α7 nAChR subtype): 440 nM

CCOC(=O)N1C[C@H]2CN[C@H](C2)C1
Ki (rat α4β2 nAChR subtype): 11 nM
Ki (human α4β2 nAChR subtype): 15 nM
Ki (rat α7 nAChR subtype): 4200 nM

O=C(C1CC1)N1C[C@@H]2CN[C@@H](C2)C1
Ki (rat α4β2 nAChR subtype): 14 nM
Ki (human α4β2 nAChR subtype): 7.3 nM
Ki (rat α7 nAChR subtype): 98 nM

O=C(C1CC=CC1)N1C[C@@H]2CN[C@@H](C2)C1
Ki (rat α4β2 nAChR subtype; [2]): 330 nM
Ki (human α4β2 nAChR subtype; SH-EP1/human α4β2 cell membranes, 5 nM [3H]nicotine): 420 nM
Ki (rat α7 nAChR subtype): 29 nM

O=C(C1CCC1)N1C[C@@H]2CN[C@@H](C2)C1
Ki (rat α4β2 nAChR subtype): 14 nM
Ki (human α4β2 nAChR subtype): 13 nM
Ki (rat α7 nAChR subtype): 370 nM

O=C(C1CC1)N1CC2CNC(C2)C1 (stereo not drawn)
Ki (rat α4β2 nAChR subtype): 1.3 nM
Ki (human α4β2 nAChR subtype): 1.5 nM
Ki (rat α7 nAChR subtype; [1]): 290 nM

O=C(C1CCCC1)N1C[C@@H]2CN[C@@H](C2)C1
Ki (rat α4β2 nAChR subtype): 130 nM
Ki (human α4β2 nAChR subtype): 160 nM
Ki (rat α7 nAChR subtype; [1]): 130 nM

O=C(C1CC=CC1)N1CC2CNC(C2)C1 (stereo not drawn)
Ki (rat α4β2 nAChR subtype): 11 nM
Ki (human α4β2 nAChR subtype): 13 nM
Ki (rat α7 nAChR subtype): 64 nM

CC1CC1C(=O)N1C[C@@H]2CN[C@@H](C2)C1 (stereo partly drawn)
Ki (rat α4β2 nAChR subtype): 4.8 nM
Ki (human α4β2 nAChR subtype): 6.8 nM
Ki (rat α7 nAChR subtype): 460 nM

From US20110263629A1, “AMIDES OF DIAZABICYCLOOCTANES AND USES THEREOF” (Targacept, Inc., priority 2008, published 2011)
